Entries after “also recorded” stand apart in the source; their conditions may differ.

The test system of one data set is BxPC-3 tumours. Nature of the data set: Tumour growth, oral administration in water. It is filed as in vivo, SCID mice. Particulars: ~10 mg per kg per day in water. As for the experimental part: FIG. 28. Inhibition of human pancreatic carcinoma and murine Lewis lung tumour growth by oral administration of GSAO. BxPC-3 or Lewis lung tumours were established in the proximal midline of female 7 to 9 week old SCID or C57Bl6/J mice, respectively, SCID mice bearing ˜0.5 g BxPC-3 tumours or C57Bl6/J mice bearing 0.1 g Lewis lung tumours were randomised into two groups (n=2 for BxPC-3 and n=3 for Lewis lung) and treated with either GSAA or GSAO (0.05 mg per mL) in their water. Mice drink ˜5 mL of water per day and therefore consumed ˜10 mg GSAO or GSM per kg per day. The water contained 100 mM glycine to minimise oxidation of GSAO. Tumour volume and animal weight was measured every 3 days. The data points and errors represent the mean and SE of the tumour volumes.
SCID mice bearing subcutaneous human pancreatic carcinoma tumours or C57Bl6/J mice bearing subcutaneous murine Lewis lung tumours were fed either ˜10 mg per kg per day GSAO or GSAA in their water.

The subject of another data set is BAE. Nature of the data set: Proliferation of cultured cells, 72 hr. It is filed as cell-based, bovine. The note with it: for IC50: 72 hr. As for the experimental part:
BCE (Folkman et al. 1979), BAE, BxPC-3 (ATCC, Bethesda, Md.), HT1080 (Jiang et al., 1999), 3T3 (ATCC, Bethesda, Md.) and BVSM (Hogg et al., 1997) cells were harvested and cultured as indicated. Cells (0.5 mL of 30,000 or 100,000 cells per mL) were seeded into gelatinized 24-well culture plates (Corning Costar, Corning, N.Y.) in Dulbecco's Modified Eagle's Medium (DMEM, JHR Bioscience, Lenexa, Kans.) containing 10% fetal calf serum (FCS, Intergen Comp., Purchase, N.Y.) and 1% Glutamine Pen-Strep (GPS, Irvine Scientific, Santa Ana, Va.) and allowed to attach for 24 hr in 10% CO2 at 37° C. The media was then replaced with DMEM and 1% GPS containing 0 to 1 mM GSAO or GSAA and either 5% bovine calf serum (BCS, HyClone, Logan, Utah) and 1 ng per mL FGF-2 (Genzyme, Cambridge, Mass.) or 5% BCS and 10 ng per mL VEGF (Genzyme, Cambridge, Mass.) for BCE cells, 5% or 10% BCS for BAE cells, 5% BCS for BVSM cells, and 5% FCS for BxPC-3, HT1080 and 3T3 cells. Cells were cultured for 0 to 72 hr in 10% CO2 at 37° C. then dispersed in trypsin/EDTA (GibcoBRL, Granc Island, N.Y.), resuspended in Coulter balanced electrolyte solution and counted with a Z1 Coulter counter (Coulter Corp., Miami, Fla.) in all experiments there were two control wells containing DMEM with 1% GPS and either 5% BCS for BCE cells, 2% BCS for BAE and BVSM cells, or 2% FCS for BxPC-3, HT1080 and 3T3 cells. These wells represented no to limited proliferation.

In another data set the test system is chick CAM. Nature of the data set: Chick chorioallantoic membrane (CAM) angiogenesis. It is filed as in vivo. The note with it: for inhibition of CAM angiogenesis (avascular zones): 5, 10 or 50 μg per pellet, 48 hr; for adverse effect on the wellbeing of the chick embryo: up to 50 μg per pellet. As for the experimental part:
FIG. 22. Inhibition of CAM angiogenesis by GSAO. Fertilised 3 day-old white Leghorn eggs were cracked, the embryos placed in petri dishes and incubated for 3 days. Methylcellulose discs containing 5, 10 or 50 μg of either GSAA or GSAO were then applied to the CAM of individual embryos and incubated for 48 hr. The CAMs were scored for no obvious effect or inhibition of angiogenesis as defined by avascular zones. Photographs of CAM's after incubation with discs containing 10 μg of either GSAA (top) or GSAO (bottom) is shown in the left hand panel. The dotted circle indicates the placement of the disc.
The chick CAM assay has been used for the detection and analysis of angiogenesis inhibition (Nguyen et al., 1994). Fertilised 3 day-old white Leghorn eggs (Spafas, Norwich, Conn.) were cracked, the embryos with intact yolks placed in 20×100 mm petri dishes and incubated for 3 days at 37° C. and 3% CO2 (Folkman, 1995). Methylcellulose (Fisher Scientific, Fair Lawn, N.J.) discs containing 5, 10 or 50 μg of either GSAA or GSAO were then applied to the CAM of individual embryos and incubated for 48 hr at 37° C. and 3% CO2. The discs were made by desiccation of GSAA or GSAO in 10 μl of 0.45% methycellulose on teflon rods. The CAMs were observed using a stereomicroscope and scored for no obvious effect or inhibition of CAM angiogenesis as defined by avascular zones. On some occasions CAM blood vessels were injected with India ink and photographed.

A further data set concerns BVSM. Nature of the data set: Proliferation of cultured cells, 72 hr. It counts as cell-based, bovine. Particulars: 5% BCS, 0 to 1 mM. As for the experimental part:
FIG. 19. Effect of GSAO on proliferation of non-endothelial cells. 15,000 BxPC-3 (part A), HT1080 (part B), 3T3 (part C) or BVSM (part D) cells per well were seeded into gelatinised 24-well culture plates and allowed to attach for 24 hr. The media was then replaced with DMEM containing 0 to 1 mM GSAO or GSAA and either 5% BCS (part D) or 5% FCS (parts A, B and C). Cells were cultured for 72 hr and then dispersed and counted. The dotted lines indicate the cell number in control wells containing DMEM and 2% BCS (part D) or 2% FCS (parts A, B and C) which represented no to limited proliferation. The data points and errors represent the mean and range of duplicate wells.
BCE (Folkman et al. 1979), BAE, BxPC-3 (ATCC, Bethesda, Md.), HT1080 (Jiang et al., 1999), 3T3 (ATCC, Bethesda, Md.) and BVSM (Hogg et al., 1997) cells were harvested and cultured as indicated. […] Cells were cultured for 0 to 72 hr in 10% CO2 at 37° C. then dispersed in trypsin/EDTA (GibcoBRL, Granc Island, N.Y.), resuspended in Coulter balanced electrolyte solution and counted with a Z1 Coulter counter (Coulter Corp., Miami, Fla.) in all experiments there were two control wells containing DMEM with 1% GPS and either 5% BCS for BCE cells, 2% BCS for BAE and BVSM cells, or 2% FCS for BxPC-3, HT1080 and 3T3 cells. […]

The next data set concerns HDMVE cells. In words: Endothelial cell tube formation in Matrigel. It is filed as cell-based, human. Particulars: 0.1, 1 or 100 μM; 18 hours. As for the experimental part: FIG. 21. GSAO perturbs endothelial cell tube formation in Matrigel. Matrigel (100 μl) was added to wells of 96 well plates and allowed to gel for 60 minutes at 37° C. HDMVE cells (10,000 cells per well) in complete media containing 0.1, 1 or 100 μM GSAA or GSAO were seeded onto the Matrigel and the plates were incubated in 5% CO2, 37° C. The phase contrast micrographs were taken after 18 hours incubation.
Endothelial cells arrange into tube-like structures when seeded onto three-dimensional matrices such as the extracellular matrix preparation, Matrigel, or collagen. The tubes can be considered to represent immature blood vessels. Matrigel (100 μl, Becton Dickinson, Bedford, Mass.) was added to wells of 96 well plates (Gibco BRL, Gaithersburg, Md.) and allowed to gel for 60 minutes at 37° C. Human dermal microvascular endothelial (HDMVE) cells were harvested and cultured as described by Stathakis et al (1997), HDMVE cells (8,000 cells per well) in 150 μl of M199 (Gibco BRL, Gaithersburg, Md.) media containing 30% pooled human serum, 50 μg per mL Heparin (Sigma, St. Louis, Mo.), 100 μg per mL Endothelial Cell Growth Supplement (Gibco BRL, Gaithersburg, Md.) and 0.1, 1 or 100 μM GSAA or GSAO were seeded onto the Matrigel and the plates were incubated for 18 hours in 5% CO2, 37° C. Phase contrast micrographs of the wells were collected.

Regarding `N[C@@H](CCC(=O)N[C@@H](CSCC(=O)Nc1ccc([As](=O)(O)O)cc1)C(=O)NCC(=O)O)C(=O)O` [GSAA, 4-(N-(S-glutathionylacetyl)amino)phenylarsonic acid, reference compound], in the data set with BxPC-3 tumours, the “growth of pancreatic tumours” value is “no significant effect”. Also, the “effect on proliferation of BAE cells” value with BAE (not shown) is listed as “did not effect either proliferation or viability”. In the data set with chick CAM, the “inhibition of CAM angiogenesis (avascular zones)” value is reported as “did not inhibit CAM angiogenesis; also recorded: no effects on CAM angiogenesis” and the “adverse effect on the wellbeing of the chick embryo” value was “Neither GSAA nor GSAO had any apparent adverse effect”. The “Proliferation IC50” value in the data set on BVSM is “no significant effect”. Besides, the “effect on tube formation” value in the data set on HDMVE cells is recorded as “no apparent effect on tube formation”.

In the case of `NC(CCC(=O)NC(CSCC(=O)Nc1ccc([As]=O)cc1)C(=O)NCC(=O)O)C(=O)O` (stereo not shown) [GSAO, 4-(N-(S-glutathionylacetyl)amino)-phenylarsenoxide], the “growth of pancreatic tumours” value in the data set with BxPC-3 tumours is “stopped growing”. For the same compound, the IC50 – broadly, the concentration that gives 50% inhibition – in the data set with BAE (5% BCS) is approximately 20 nM; with BAE (10% BCS), approximately 200 nM. In addition, in the data set with chick CAM, the “inhibition of CAM angiogenesis (avascular zones)” value is reported as “inhibited angiogenesis in the CAM in a concentration-dependent manner”. Also, the “adverse effect on the wellbeing of the chick embryo” value with chick CAM is “Neither GSAA nor GSAO had any apparent adverse effect”. Further, the “Proliferation IC50” value with BVSM is “did not affect the proliferation”. Moreover, the “effect on tube formation” value in the data set with HDMVE cells is “Effects were apparent at 0.1 μM concentration and marked at 100 μM”.

The record behind these values is US7498406B2, “Substantially cell membrane impermeable compound and use thereof” (priority 1999, dated 2009).
